Tests used:
TRAP1 enzyme [1] = biological target: T1, TRAP1 enzyme (Homo sapiens, UniProt Q12931); test: Malachite green phosphate assay of TRAP1 ATPase activity; format: biochemical; conditions: for EC50: TRAP1 ATPase activation, 150 nM Trap1, 20 μM ATP, geometric mean, read-out: Malachite Green Fluor DRC: GeoMean EC50; for Emax: read-out: Malachite Green Fluor DRC: Mean Emax
T1 sequence (Q12931 60-704): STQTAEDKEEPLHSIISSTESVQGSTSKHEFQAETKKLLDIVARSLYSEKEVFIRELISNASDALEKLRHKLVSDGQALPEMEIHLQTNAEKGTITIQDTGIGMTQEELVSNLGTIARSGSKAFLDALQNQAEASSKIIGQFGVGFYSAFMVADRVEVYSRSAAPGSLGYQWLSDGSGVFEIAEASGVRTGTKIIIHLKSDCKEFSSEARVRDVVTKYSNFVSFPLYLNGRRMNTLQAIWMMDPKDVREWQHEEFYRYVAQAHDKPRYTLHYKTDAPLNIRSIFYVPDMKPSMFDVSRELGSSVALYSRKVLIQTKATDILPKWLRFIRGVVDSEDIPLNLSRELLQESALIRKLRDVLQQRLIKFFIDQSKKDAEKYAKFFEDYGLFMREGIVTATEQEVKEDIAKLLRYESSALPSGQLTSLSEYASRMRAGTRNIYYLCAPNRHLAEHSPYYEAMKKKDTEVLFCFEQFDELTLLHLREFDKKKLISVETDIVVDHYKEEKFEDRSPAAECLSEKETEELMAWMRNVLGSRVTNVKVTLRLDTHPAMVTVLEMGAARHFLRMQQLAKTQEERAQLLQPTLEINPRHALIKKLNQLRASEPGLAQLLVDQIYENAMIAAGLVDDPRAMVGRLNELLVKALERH
Protocol: The Potency of test compounds to modulate the ATPase activity of TRAP1 enzyme was evaluated using malachite green phosphatase assay. The assay is based on quantification of the green complex formed between Malachite Green, molybdate and inorganic phosphate generated in the phosphatase reaction. Assays were performed using a Malachite Green assay kit. All the assays were carried out in a 96-well transparent plate. The buffer used was 50 mM HEPES (pH 7.5), 20 mM KCl, 4 mM MgCl2 and 0.05% BSA. 150 nM Trap1 enzyme was incubated with various concentrations of the test compound (0.78 μM-100 μM) at 37° C. for 30 mins. 20 μM ATP was added to each well (except blank wells) to start the reaction and the plate was then incubated at 37° C. for 180 mins. 10 μl of the reaction volume of each sample was then transferred to a white 384-well proxiplate in quadruplets. 2.5 μl of Malachite Green reagent was added to all the wells and the plate was equilibrated for 15 mins. The reaction was stopped by adding 12% H2SO4 and the plate was read for fluorescence at 620 nm (λex=573 nm). The amount of phosphate released was estimated from a phosphate standard curve generated at the same experimental conditions. Emax (Maximal percent activation) and EC50 (concentration of test compound for half maximal activation) were estimated by fitting the dose response data to a sigmoidal curve fitting equation using Graphpad Prism software V.7.0.

TRAP1 enzyme [2] = biological target: T1, TRAP1 enzyme; test: ADP Glo assay of TRAP1 ATPase activity; format: biochemical; conditions: for EC50: TRAP1 ATPase activation, 150 nM Trap1, 20 μM ATP, geometric mean, read-out: ADP GLO DRC: GeoMean EC50; for Emax: read-out: ADP GLO DRC: Mean Emax
Outline: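 150 nM TRAP1 preincubated with compound (0.79–100 μM) 30 min at 37° C in Pipes pH 7.5 buffer (0.05 mM MgCl2, 40 mM KCl), then 20 μM ATP added for 60 min at 37° C. ADP quantified by ADP-Glo luminescence against ATP/ADP standard curve. Emax and EC50 from sigmoidal fit.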

Row | EC50 (TRAP1 enzyme [1]) | Emax (TRAP1 enzyme [1]) | EC50 (TRAP1 enzyme [2]) | Emax (TRAP1 enzyme [2]) | Structure (SMILES)
1 | 20 to 100 µM | 200 to 300% | – | – | O=C(Nc1ccc(F)c(S(=O)(=O)Nc2ccc(Br)cc2)c1)c1cnc(C(F)(F)F)[nH]1 [Compound 186]
2 | 20 to 100 µM | 160 to 199% | – | – | COc1ccc(NC(=O)c2cnc(-c3ccccc3)[nH]2)cc1S(=O)(=O)N(C)c1ccc(Br)cc1 [Compound 164]
3 | 20 to 100 µM | 123 to 159% | – | – | COc1ccc(NC(=O)c2cnc[nH]2)cc1S(=O)(=O)Nc1ccc(C(C2N=N2)C(F)(F)F)cc1 (stereo not shown) [Compound 398]
4 | < 10 µM | 123 to 159% | – | – | COc1ccc(-c2ncc(C(=O)Nc3ccc(OC)c(S(=O)(=O)Nc4ccc(Br)cc4)c3)[nH]2)cc1 [Compound 417]
5 | 20 to 100 µM | 160 to 199% | – | – | COc1ccc(NC(=O)c2cnco2)cc1S(=O)(=O)Nc1ccc(Br)cc1 [Compound 91, N-(3-(N-(4-bromophenyl)sulfamoyl)-4-methoxyphenyl) oxazole-5-carboxamide]
6 | 10 to 20 µM | 160 to 199% | – | – | COc1ccc(NC(=O)c2ccccc2N2CCOCC2)cc1S(=O)(=O)Nc1c(C)cccc1C [Compound 1048]
7 | 20 to 100 µM | 123 to 159% | – | – | O=C(Nc1ccc(F)c(S(=O)(=O)Nc2ccc(F)cc2)c1)c1ncco1 [Compound 314]
8 | – | – | 20 to 100 µM | 160 to 199% | CCc1noc(CC)c1C(=O)Nc1ccc(F)c(S(=O)(=O)Nc2ccc(Cl)cc2)c1 [Compound 830]
9 | – | – | 10 to 20 µM | 123 to 159% | COc1ccc(NC(=O)c2cccnc2-c2cc(F)cc(F)c2)cc1S(=O)(=O)Nc1c(C)cccc1C [Compound 1096]
10 | – | – | 20 to 100 µM | 160 to 199% | COc1ccc(NC(=O)c2cocn2)cc1S(=O)(=O)Nc1ccc(Cl)cc1 [Compound 1961]
11 | – | – | 10 to 20 µM | 160 to 199% | COc1ccc(NC(=O)c2nnc(-c3ccccc3)[nH]2)cc1S(=O)(=O)Nc1ccc(Cl)cc1 [Compound 586, N-(3-(N-(4-chlorophenyl)sulfamoyl)-4-methoxyphenyl)-5-phenyl-4H-1,2,4-triazole-3-carboxamide]
12 | – | – | < 10 µM | 160 to 199% | COc1ccccc1-c1nc(C(=O)Nc2ccc(OC)c(S(=O)(=O)Nc3ccc(Br)cc3)c2)c[nH]1 [Compound 1181]
13 | – | – | < 10 µM | 160 to 199% | COc1ccc(NC(=O)c2ncc(-c3ccccc3)o2)cc1S(=O)(=O)Nc1c(C)csc1C [Compound 1693]
14 | – | – | 10 to 20 µM | 200 to 300% | COc1ccc(NC(=O)c2ncc(-c3ccccc3)o2)cc1S(=O)(=O)Nc1cccc(C(F)(F)F)n1 [Compound 1805]
15 | – | – | 10 to 20 µM | 123 to 159% | COc1ccc(NC(=O)c2ncc(-c3ccccc3)o2)cc1S(=O)(=O)Nc1c(C)ccnc1OC [Compound 1666]
16 | – | – | 20 to 100 µM | 123 to 159% | COc1ccc(NC(=O)c2ccc3c(c2)CCN3C)cc1S(=O)(=O)Nc1c(C)cccc1C [Compound 1008]
17 | – | – | < 10 µM | 200 to 300% | COc1ccc(NC(=O)c2ccc(C)nc2OC)cc1S(=O)(=O)Nc1c(C)cccc1C [Compound 1021]
18 | – | – | 10 to 20 µM | 200 to 300% | COc1ccc(NC(=O)c2n[nH]c3c2CCCC3)cc1S(=O)(=O)Nc1c(C)cccc1C [Compound 1235]
19 | – | – | 20 to 100 µM | 160 to 199% | COc1ccc(NC(=O)c2cn(C)nc2C(F)F)cc1S(=O)(=O)Nc1c(C)cccc1C [Compound 1074]
20 | – | – | < 10 µM | 200 to 300% | COc1ccc(NC(=O)c2cc3c(C)nn(C)c3s2)cc1S(=O)(=O)Nc1c(C)cccc1C [Compound 1252]
21 | – | – | 20 to 100 µM | 123 to 159% | O=C(Nc1ccc(F)c(S(=O)(=O)Nc2ccc(Cl)cc2)c1)c1csc(N2CCOCC2)n1 [Compound 745]
22 | – | – | 20 to 100 µM | 200 to 300% | COc1ccc(NC(=O)c2cnc(Cl)cc2Cl)cc1S(=O)(=O)Nc1c(C)cccc1C [Compound 1082]
23 | – | – | 10 to 20 µM | 160 to 199% | COc1ccc(NC(=O)c2cc(C)cs2)cc1S(=O)(=O)Nc1c(C)cccc1C [Compound 1101]

Row | EC50 (TRAP1 enzyme [1]) | Emax (TRAP1 enzyme [1]) | EC50 (TRAP1 enzyme [2]) | Emax (TRAP1 enzyme [2]) | Structure (SMILES)
24 | – | – | < 10 µM | 123 to 159% | COc1ccc(NC(=O)c2ccc(-c3ccccc3C(F)(F)F)o2)cc1S(=O)(=O)Nc1c(C)cccc1C [Compound 1162]
25 | – | – | 20 to 100 µM | 160 to 199% | Cn1ncc(C(=O)Nc2ccc(F)c(S(=O)(=O)Nc3ccc(Cl)cc3)c2)c1-n1cccc1 [Compound 817]
26 | – | – | 10 to 20 µM | 200 to 300% | COc1ccc(NC(=O)c2ccc3ncccc3c2)cc1S(=O)(=O)Nc1c(C)cccc1C [Compound 1241]
27 | – | – | 10 to 20 µM | 200 to 300% | COc1ccc(NC(=O)c2nn(C)c3c2CCC3)cc1S(=O)(=O)Nc1c(C)cccc1C [Compound 1010]
28 | – | – | 10 to 20 µM | 123 to 159% | COc1ccc(NC(=O)c2cccnc2-c2ccc(C)cc2)cc1S(=O)(=O)Nc1c(C)cccc1C [Compound 1045]
29 | – | – | 10 to 20 µM | 123 to 159% | Cc1nccc(C(F)(F)F)c1C(=O)Nc1ccc(F)c(S(=O)(=O)Nc2ccc(Cl)cc2)c1 [Compound 734]
30 | – | – | 10 to 20 µM | 200 to 300% | COc1ccc(NC(=O)c2ncn(-c3ccccc3)n2)cc1S(=O)(=O)Nc1c(C)cccc1C [Compound 1270]
31 | – | – | < 10 µM | 160 to 199% | COc1ccc(NC(=O)c2csc(-c3ccccc3)n2)cc1S(=O)(=O)Nc1c(C)cccc1C [Compound 1116]
32 | – | – | 20 to 100 µM | 123 to 159% | CCOc1ccsc1C(=O)Nc1ccc(F)c(S(=O)(=O)Nc2ccc(Cl)cc2)c1 [Compound 765]
33 | – | – | 20 to 100 µM | 123 to 159% | O=C(Nc1ccc(F)c(S(=O)(=O)Nc2ccc(Cl)cc2)c1)c1cnccc1C(F)(F)F [Compound 784]
34 | – | – | 20 to 100 µM | > 300% | C=C(C)c1cc(OC)c(S(=O)(=O)Nc2ccc(C(F)(F)F)cc2)cc1NC(=O)c1ncc(-c2ccccc2)o1 [Compound 1189]
35 | – | – | 20 to 100 µM | 123 to 159% | COc1ccc(NC(=O)c2cc(Cl)ncc2C(F)(F)F)cc1S(=O)(=O)Nc1c(C)cccc1C [Compound 1274]
36 | – | – | 10 to 20 µM | > 300% | COc1ccc(NC(=O)c2ncn(Cc3ccccc3)n2)cc1S(=O)(=O)Nc1c(C)cccc1C [Compound 1029]
37 | – | – | < 10 µM | 200 to 300% | COc1ccc(NC(=O)c2cccc(-c3cccnc3)c2)cc1S(=O)(=O)Nc1c(C)cccc1C [Compound 1225]
38 | – | – | 10 to 20 µM | 160 to 199% | Cc1noc(C(C)C)c1C(=O)Nc1ccc(F)c(S(=O)(=O)Nc2ccc(Cl)cc2)c1 [Compound 751]
39 | – | – | 20 to 100 µM | 123 to 159% | N#Cc1ccc(C(=O)Nc2ccc(F)c(S(=O)(=O)Nc3ccc(Cl)cc3)c2)c(C(F)(F)F)n1 [Compound 827]
40 | – | – | 20 to 100 µM | 123 to 159% | COc1ccc(NC(=O)c2ccncc2-c2ccccc2)cc1S(=O)(=O)Nc1c(C)cccc1C [Compound 1267]
41 | – | – | 20 to 100 µM | 160 to 199% | COc1ccc(NC(=O)c2cnc(C3CC3)o2)cc1S(=O)(=O)Nc1c(C)cccc1C [Compound 1175]
42 | – | – | < 10 µM | 160 to 199% | COc1ccc(NC(=O)c2cnc(-c3ccccc3)[nH]2)cc1S(=O)(=O)Nc1c(C)cc(Cl)cc1C [Compound 443]
43 | – | – | 10 to 20 µM | 200 to 300% | COc1ccc(NC(=O)c2ccc3nsnc3c2)cc1S(=O)(=O)Nc1c(C)cccc1C [Compound 1240]
44 | – | – | 10 to 20 µM | 123 to 159% | COc1ccc(NC(=O)c2ncccc2C)cc1S(=O)(=O)Nc1c(C)cccc1C [Compound 1167]
45 | – | – | < 10 µM | 200 to 300% | COc1ccc(NC(=O)c2cc(C(C)C)on2)cc1S(=O)(=O)Nc1c(C)cccc1C [Compound 1032]
46 | – | – | 20 to 100 µM | 123 to 159% | COc1ccc(NC(=O)c2ccc3ncoc3c2)cc1S(=O)(=O)Nc1c(C)cccc1C [Compound 1236]

Row | Structure (SMILES) | EC50 (TRAP1 enzyme [1]) | Emax (TRAP1 enzyme [1]) | EC50 (TRAP1 enzyme [2]) | Emax (TRAP1 enzyme [2])
47 | COc1ccc(NC(=O)c2nn(C(C)C)c3ccccc23)cc1S(=O)(=O)Nc1c(C)cccc1C [Compound 1109] | – | – | < 10 µM | 123 to 159%

Reference: US20230174523A1, “BENZENESULFONAMIDE DERIVATIVES AS TRAP1 MODULATORS AND USES THEREOF” (Amathus Therapeutics, Inc., priority 2020, published 2023)
